Laboratory results reported in US12264139B2, “Aryl sulfonamides as BLT1 antagonists” (Merck Sharp & Dohme LLC, priority 2015, dated 2025).

Each molecule was assayed against T1, human BLT1 receptor (Homo sapiens, UniProt Q15722) (assay: BLT-1 cAMP Assay). Conditions: HEK293 cells recombinantly expressing human BLT1; antagonist activity vs forskolin 4 μM and LTB4 2 nM; cAMP (CisBio kit).
T1 construct: expressed in transfected cells; host or cells: HEK293
Assay type: cell-based
Description: The ability of compounds to antagonize the human BLT1 receptor was determined using a kit to measure changes in intracellular cyclic AMP levels (cAMP dynamic assay kit, Cisbio Cat. No. 62AM4PEC). […] The cell suspension was centrifuged at 200×g for 10 min and then resuspended in fresh assay medium to a density of 2.5×10^5 cells/mL. […] All subsequent liquid additions were performed using a BIORAPTR (FRD; Beckman Coulter). Next, 5 μL of cell suspension was added and incubated for 20 min. at 37° C. and 5% CO2 in a humidified plastic tray.
The levels of cAMP were detected using the CisBio kit following the manufacturer's instructions: cAMP-d2 vial was reconstituted with distilled water and then diluted accordingly with conjugate & lysis buffer. 5 µL of cAMP-d2 working solution was added to all of the wells of the assay plate. cAMP-Cryptate vial was reconstituted with distilled water and then diluted accordingly with conjugate & lysis buffer. 5 µL of cAMP-Cryptate working solution were added to the assay plate. The assay plate was shaken for 3 minutes and incubated at room temperature for 45 minutes, then read on Perkin Elmer Envision. cAMP standard curve and fit data were plotted using a 4 parameter dose response curve fitting algorithm to fit curve. […] After normalization to treated and untreated controls, the percent effect of signal at each compound concentration was calculated. The plot of percent effect versus the log of compound concentration was fit with a 4-parameter concentration response equation to calculate EC50 values.

T1 sequence (Q15722 whole entry): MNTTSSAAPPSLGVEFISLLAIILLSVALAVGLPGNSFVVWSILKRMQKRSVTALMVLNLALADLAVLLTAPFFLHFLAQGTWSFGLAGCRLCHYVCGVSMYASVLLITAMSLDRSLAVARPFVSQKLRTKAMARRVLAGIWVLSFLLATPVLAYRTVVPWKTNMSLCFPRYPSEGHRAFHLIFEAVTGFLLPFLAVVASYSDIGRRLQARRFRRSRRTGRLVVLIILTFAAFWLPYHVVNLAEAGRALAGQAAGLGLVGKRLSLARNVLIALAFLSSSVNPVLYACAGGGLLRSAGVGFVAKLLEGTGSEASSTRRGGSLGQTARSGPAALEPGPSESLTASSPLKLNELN

| EC50 | SMILES |
| --- | --- |
| 826 nM | Cc1nc(C[C@@H]2COc3cc(-c4ccccc4NS(=O)(=O)C(F)(F)F)ccc3[C@H]2O)cs1 (single isomer, unassigned) [Example 56, 1,1,1-Trifluoro-N-(2-{(3R,4S or 3S,4R)-4-hydroxy-3-[(2-methyl-1,3-thiazol-4-yl)methyl]-3,4-dihydro-2H-chromen-7-yl}phenyl)-methanesulfonamide] |
| 10 nM | Cc1nc(C[C@H]2COc3cc(-c4ccccc4NS(=O)(=O)C(F)(F)F)ccc3[C@@H]2O)cs1 (single isomer, unassigned) [Example 57, 1,1,1-Trifluoro-N-(2-{(3S,4R or 3R,4S)-4-hydroxy-3-[(2-methyl-1,3-thiazol-4-yl)methyl]-3,4-dihydro-2H-chromen-7-yl}phenyl)-methanesulfonamide] |
| 15 nM | O=S(=O)(Nc1ccccc1-c1ccc2c(c1)OC[C@H](Cc1ccccc1)[C@H]2O)C(F)(F)F (single isomer, unassigned) [Example 59, N-{2-[(3S,4R or 3R,4S)-3-benzyl-4-hydroxy-3,4-dihydro-2H-chromen-7-yl]phenyl}-1,1,1-trifluoromethanesulfonamide] |
| 269 nM | Cc1cccnc1C[C@H]1COc2cc(-c3ccccc3NS(=O)(=O)C(F)(F)F)ccc2[C@@H]1O (single isomer, unassigned) [Example 60, 1,1,1-Trifluoro-N-(2-{(3,4-trans)-4-hydroxy-3-[(3-methylpyridin-2-yl)methyl]-3,4-dihydro-2H-chromen-7-yl}phenyl)methanesulfonamide] |
| 1340 nM | O=S(=O)(Nc1ccccc1-c1ccc2c(c1)OC[C@@H](Cc1cccs1)[C@@H]2O)C(F)(F)F (single isomer, unassigned) [Example 61, 1,1,1-trifluoro-N-{2-[(3R,4S or 3S,4R)-4-hydroxy-3-(thiophen-2-ylmethyl)-3,4-dihydro-2H-chromen-7-yl]phenyl}methanesulfonamide] |
| 23 nM | O=S(=O)(Nc1ccccc1-c1ccc2c(c1)OC[C@H](Cc1cccs1)[C@H]2O)C(F)(F)F (single isomer, unassigned) [Example 62, 1,1,1-trifluoro-N-{2-[(3S,4R or 3R,4S)-4-hydroxy-3-(thiophen-2-ylmethyl)-3,4-dihydro-2H-chromen-7-yl]phenyl}methanesulfonamide] |
| 320 nM | Cc1cccc(C[C@@H]2COc3cc(-c4ccccc4NS(=O)(=O)C(F)(F)F)ccc3[C@H]2O)n1 (single isomer, unassigned) [Example 63, 1,1,1-Trifluoro-N-(2-{(3,4-trans)-4-hydroxy-3-[(6-methyl-pyridin-2-yl)methyl]-3,4-dihydro-2H-chromen-7-yl}-phenyl)methanesulfonamide] |
| 971 nM | O=S(=O)(Nc1ccccc1-c1ccc2c(c1)OC[C@@H](Cc1csc(-c3ccccc3)n1)[C@@H]2O)C(F)(F)F (single isomer, unassigned) [Example 64, 1,1,1-Trifluoro-N-(2-((3R,4S or 3S,4R)-4-hydroxy-3-((2-phenylthiazol-4-yl)-methyl)chroman-7-yl)-phenyl)methanesulfonamide] |
| 47 nM | O=S(=O)(Nc1ccccc1-c1ccc2c(c1)OC[C@H](Cc1csc(-c3ccccc3)n1)[C@H]2O)C(F)(F)F (single isomer, unassigned) [Example 65, 1,1,1-Trifluoro-N-(2-((3S,4R or 3R,4S)-4-hydroxy-3-((2-phenylthiazol-4-yl)-methyl)chroman-7-yl)-phenyl)methanesulfonamide] |
| 210 nM | Cn1nccc1C[C@@H]1COc2cc(-c3ccccc3NS(=O)(=O)C(F)(F)F)ccc2[C@H]1O (single isomer, unassigned) [Example 66, 1,1,1-trifluoro-N-(2-{(3,4-trans)-4-hydroxy-3-[(1-methyl-1H-pyrazol-5-yl)methyl]-3,4-di-hydro-2H-chromen-7-yl}-phenyl)methanesulfonamide] |
| 48 nM | O=S(=O)(Nc1ccccc1-c1ccc2c(c1)OC[C@@H](Cc1ccc(-c3ccccc3)cc1)[C@@H]2O)C(F)(F)F (single isomer, unassigned) [Example 67, N-{2-[(3S,4R or 3R,4S)-3-(biphenyl-4-ylmethyl)-4-hydroxy-3,4-dihydro-2H-chromen-7-yl]phenyl}-1,1,1-trifluoromethanesulfonamide] |
| 5.3 nM | O=S(=O)(Nc1ccccc1-c1ccc2c(c1)OC[C@H](Cc1ccc(-c3ccccc3)cc1)[C@H]2O)C(F)(F)F (single isomer, unassigned) [Example 68, N-{2-[(3R,4S or 3S,4R)-3-(biphenyl-4-ylmethyl)-4-hydroxy-3,4-dihydro-2H-chromen-7-yl]phenyl}-1,1,1-trifluoromethanesulfonamide] |
| 30 nM | O=S(=O)(Nc1ccccc1-c1ccc2c(c1)OC[C@@H](Cc1ncccc1F)[C@@H]2O)C(F)(F)F (single isomer, unassigned) [Example 69, 1,1,1-Trifluoro-N-(2-{(3,4-trans)-3-[(3-fluoropyridin-2-yl)methyl]-4-hydroxy-3,4-dihydro-2H-chromen-7-yl}phenyl)methanesulfonamide] |
| 261 nM | Cc1nnc(C[C@@H]2COc3cc(-c4ccccc4NS(=O)(=O)C(F)(F)F)ccc3[C@H]2O)s1 (single isomer, unassigned) [Example 70, 1,1,1-Trifluoro-N-(2-{(3,4-trans)-4-hydroxy-3-[(5-methyl-1,3,4-thiadiazol-2-yl)methyl]-3,4-dihydro-2H-chromen-7-yl}phenyl)-methanesulfonamide] |
| 125 nM | O=S(=O)(Nc1ccccc1-c1ccc2c(c1)OC[C@@H](Cc1cc[nH]n1)[C@@H]2O)C(F)(F)F (single isomer, unassigned) [Example 71, 1,1,1-trifluoro-N-{2-[(3,4-trans)-4-hydroxy-3-(1H-pyrazol-3-ylmethyl)-3,4-dihydro-2H-chromen-7-yl]phenyl}-methanesulfonamide] |
| 2980 nM | CS(=O)(=O)Nc1ccccc1-c1ccc2c(c1)OC[C@H](Cc1ccccn1)[C@H]2O (single isomer, unassigned) [Example 72, N-{2-[(3S,4R or 3R,4S)-4-hydroxy-3-(pyridin-2-ylmethyl)-3,4-dihydro-2H-chromen-7-yl]phenyl}methanesulfonamide] |
| 193 nM | CS(=O)(=O)Nc1ccccc1-c1ccc2c(c1)OC[C@@H](Cc1ccccn1)[C@@H]2O (single isomer, unassigned) [Example 73, N-{2-[(3R,4S or 3S,4R)-4-hydroxy-3-(pyridin-2-ylmethyl)-3,4-dihydro-2H-chromen-7-yl]phenyl}methanesulfonamide] |
| 235 nM | CC1(S(=O)(=O)Nc2ccccc2-c2ccc3c(c2)OCC(Cc2ccccn2)C3O)CC1 (single isomer, unassigned) [Example 75, N-(2-((3,4-trans)-4-hydroxy-3-(pyridin-2-ylmethyl)chroman-7-yl)phenyl)-1-methylcyclopropane-1-sulfonamide] |
| 1860 nM | O=S(=O)(CC(F)(F)F)Nc1nccnc1-c1ccc2c(c1)OC[C@@H](Cc1ccccn1)[C@@H]2O (single isomer, unassigned) [Example 76, 2,2,2-Trifluoro-N-(3-((3,4-trans)-4-hydroxy-3-(pyridin-2-ylmethyl)chroman-7-yl)pyrazin-2-yl)ethanesulfonamide] |
